Measurements: patent US7371536B2, “Methods for transporting vitamin C” (priority 1999, dated 2008)

Biological target: T1, human SVCT1 (Homo sapiens, UniProt Q9UHI7)
T1 construct: expressed in transfected cells; host or cells: Xenopus laevis oocytes injected with cRNA (vector pTLN2)
Assay: Two-microelectrode voltage-clamp of Xenopus oocytes expressing human SVCT1
Type: cell-based
Details: 500 μM, −50 mV
Procedure: (§1) Functional characterization in Xenopus oocytes—SVCT1 and SVCT2 cDNAs were subcloned into the pTLN2 vector (to improve functional expression in oocytes) and used for cRNA synthesis in vitro using the MEGAscript kit and T7 RNA polymerase (from Ambion). Oocytes were isolated from Xenopus laevis, treated with collagenase A and maintained at 18° C. in modified Barths' medium. Oocytes were injected with 15 ng SVCT1 or SVCT2 cRNA or water only. The radiotracer uptake and voltage-clamp experiments described below were conducted 2-5 days post-injection in standard medium of composition 100 mM NaCl, 2 mM KCl, 1 mM CaCl2, 1 mM MgCl2, and 10 mM HEPES (buffered to pH 7.5 with Tris base). For low-Na^+ or Na^+-free media, NaCl was replaced with choline chloride. For pH-dependence experiments, Na^+ media were buffered to between pH 5.5 and pH 8.0 using 0-5 mM MES, 0-5 mM HEPES and 0-5 mM Tris base. L-Ascorbic acid-containing solutions were always freshly prepared and used immediately. Radiotracer uptake was determined by incubating 8-12 oocytes for 30 min (within the time-course of linear uptake) in standard Na^+, low-Na^+ or Na^+-free media with 10-500 μM L-[1-^14C]ascorbic acid (final specific activity ≈0.3 GBq/mmol). Oocytes were solubilized with 10% SDS and carbon-14 content measured by liquid scintillation counting. A two-microelectrode voltage-clamp was used to measure currents associated with SVCT1 expressed in oocytes. Oocytes were superfused at 22° C. in standard Na^+ medium and clamped at −50 mV. Current was continuously monitored by sampling at 1 Hz. Test solutions were always washed out with substrate-free, Na^+-free medium at pH 7.5 for several minutes. Once again, saturation kinetics data were fit to a modified Hill equation in which I and Imax were replaced by uptake V and maximal velocity Vmax for analysis of radiotracer uptake data.

T1 sequence (Q9UHI7 whole entry): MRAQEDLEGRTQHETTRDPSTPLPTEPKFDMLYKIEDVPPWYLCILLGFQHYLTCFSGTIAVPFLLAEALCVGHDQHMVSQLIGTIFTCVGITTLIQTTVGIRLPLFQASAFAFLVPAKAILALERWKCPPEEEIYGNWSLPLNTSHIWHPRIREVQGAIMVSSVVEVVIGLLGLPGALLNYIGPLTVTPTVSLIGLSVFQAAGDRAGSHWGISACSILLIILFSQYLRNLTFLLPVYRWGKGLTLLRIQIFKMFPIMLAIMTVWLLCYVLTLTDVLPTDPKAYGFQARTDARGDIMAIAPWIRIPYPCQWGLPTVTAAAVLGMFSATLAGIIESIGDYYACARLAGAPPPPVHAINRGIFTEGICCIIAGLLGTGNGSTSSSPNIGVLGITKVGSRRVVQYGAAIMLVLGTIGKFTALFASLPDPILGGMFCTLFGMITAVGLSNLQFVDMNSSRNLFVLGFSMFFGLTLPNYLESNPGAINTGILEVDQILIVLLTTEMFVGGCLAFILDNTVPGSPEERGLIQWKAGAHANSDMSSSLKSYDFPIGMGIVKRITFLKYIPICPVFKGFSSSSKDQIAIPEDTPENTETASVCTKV

transport / substrate selectivity (in words) | Compound
barely transported | O=C1O[C@H]([C@@H](O)CO)C(O)=C1OP(=O)(O)O [L-ascorbic acid-2-phosphate]
excluded | O=C1O[C@H]([C@@H](O)CO)[C@H](O)[C@@H]1O [L-gulono-γ-lactone]

Same assay, conditions: each at 500 μM, −50 mV

evoked current relative to that of L-ascorbic acid | Compound
about 15% | O=C1O[C@H]([C@H](O)CO)C(O)=C1O [D-isoascorbic acid]

Same assay, conditions: −50 mV

K0.5 based on evoked currents [mM] | Compound
2.7 ± 1.2 | O=C1O[C@H]([C@H](O)CO)C(O)=C1O [D-isoascorbic acid]

Biological target: T2, rat SVCT1 (Rattus norvegicus, UniProt Q9WTW7)
T2 construct: expressed in transfected cells; host or cells: Xenopus laevis oocytes injected with cRNA
T2 sequence (Q9WTW7 whole entry): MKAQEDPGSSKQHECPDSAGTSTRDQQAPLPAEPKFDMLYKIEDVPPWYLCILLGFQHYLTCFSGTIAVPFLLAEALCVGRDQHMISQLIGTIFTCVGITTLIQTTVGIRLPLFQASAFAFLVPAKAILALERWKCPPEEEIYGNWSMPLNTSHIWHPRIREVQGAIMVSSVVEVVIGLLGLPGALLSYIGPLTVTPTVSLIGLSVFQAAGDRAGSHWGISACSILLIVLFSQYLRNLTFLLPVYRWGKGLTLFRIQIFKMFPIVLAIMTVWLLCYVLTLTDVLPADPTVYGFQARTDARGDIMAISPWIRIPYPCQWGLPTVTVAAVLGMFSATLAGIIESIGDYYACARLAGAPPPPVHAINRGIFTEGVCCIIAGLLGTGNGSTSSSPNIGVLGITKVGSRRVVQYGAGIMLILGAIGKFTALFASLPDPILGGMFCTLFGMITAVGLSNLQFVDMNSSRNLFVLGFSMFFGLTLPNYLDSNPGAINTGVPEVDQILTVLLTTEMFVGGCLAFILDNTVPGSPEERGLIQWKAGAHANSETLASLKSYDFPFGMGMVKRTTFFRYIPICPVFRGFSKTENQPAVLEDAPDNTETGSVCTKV
Assay: Two-microelectrode voltage-clamp of Xenopus oocytes expressing rat SVCT1
Type: cell-based
Details: at 200 μM L-ascorbic acid, −50 mV
Procedure: Rat SVCT1 and SVCT2 clones were obtained by isolating SVCT1 cDNA from rat kidney by expression cloning as described in Hediger et al., Methods Enzymol. 296:17-52 (1998). The SVCT2 cDNA was subsequently isolated by PCR-based homology screening of a rat brain cDNA library. […] Radiotracer and voltage-clamp experiments were performed (at 22° C.) in Xenopus oocytes two to seven days after injection with ˜25 ng of SVCT1 or SVCT2 cRNA synthesized in vitro. Radiotracer uptake was determined by incubating 6-10 oocytes for 30 or 60 min in standard 100 mM Na^+ or Na^+-free media with 10-600 μM L-[^14C]ascorbic acid.
Functional characterization of SVCT1 and SVCT2 in Xenopus oocytes—Oocytes were isolated from Xenopus laevis (under 2-aminoethylbenzoate anaesthesia), treated with collagenase A and stored at 18° C. in modified Barths' medium. Oocytes were injected with ≈25 ng of SVCT1 or SVCT2 cRNA synthesized in vitro, or water only (control), and incubated 2-7 days before radiotracer or voltage-clamp experiments were performed. Standard Na^+ uptake medium comprised 100 mM NaCl, 2 mM KCl, 1 mM CaCl2, 1 mM MgCl2, 10 mM HEPES (pH 7.5 with Tris base). For Na^+-free or low-Na^+ media, NaCl was replaced by equimolar choline chloride; likewise, Cl^− was replaced by gluconate for Cl^−-free medium. For pH-sensitivity experiments, Na^+ media were buffered at pH 5.5-8.0 using 0-5 mM MES, 0-5 mM HEPES and 0-5 mM Tris base. L-Ascorbic acid-containing solutions were freshly-prepared (without dithiothreitol) and used immediately.
Radiotracer uptake was determined by incubating 6-10 oocytes for 30 or 60 min in standard Na^+ or Na^+-free media (at 22° C.) with 10-600 μM L-[1-^14C]ascorbic acid (final specific activity 0.3 GBq/mmol). Oocytes were solubilized with 10% SDS and [^14C]-content was measured by liquid scintillation counting. A two-microelectrode voltage-clamp was used to measure currents in control oocytes and oocytes injected with rat SVCT1 or rat SVCT2 cRNA. Microelectrodes (resistance 0.5-5 MΩ) were filled with 3 M KCl. Oocytes were superfused at 22° C. in standard Na^+ medium and clamped at a holding potential (Vh) of −50 mV. For continuous current monitoring at Vh=−50 mV, the current was low-pass filtered at 20 Hz (sampling at 1 Hz). Additionally, step-changes in membrane potential (Vm) were applied (from +50 mV to −150 mV in 20-mV increments), each for a duration of 100 ms, before and after the addition of substrate; current was low-pass filtered at 500 Hz and digitized at 5 kHz. Test solutions were always washed out with substrate-free medium (100 mM choline chloride) at pH 7.5 for several minutes. Steady-state data (obtained by averaging the points over the final 16.7 ms at each Vm step when step-changes were applied) were fitted to equation (1) below, for which I is the evoked current (i.e., the difference in steady-state current measured in the presence and absence of substrate), Imax the derived current maximum, S the concentration of substrate S (Na^+ or L-ascorbic acid),
[formula] the substrate concentration at which current was half-maximal, and nH the Hill coefficient for S. (For radiotracer experiments, I was replaced with velocity V and Imax replaced with the derived maximal velocity, Vmax.)

K0.5 for Na^+ (concentration at which current was half-maximal) [mM] | Compound
40 | [Na+] [Na^+]

Same assay, conditions: evoked currents, −50 mV

Hill coefficient (nH) | Compound
≈ 2 | [Na+] [Na^+]

Same assay, conditions: oocytes expressing SVCT1

evoked current / substrate selectivity (in words) | Compound
excluded | O=C1O[C@H]([C@@H](O)CO)[C@H](O)[C@@H]1O [L-gulono-γ-lactone]
excluded | O=c1cc[nH]c(=O)[nH]1 [uracil]

Same assay, conditions: substrate selectivity, FIG. 4F

evoked current relative to that for L-ascorbic acid | Compound
≈ 30% | O=C1O[C@H]([C@H](O)CO)C(O)=C1O [D-isoascorbic acid]

Biological target: T1, human SVCT1
Assay: L-[14C]ascorbic acid radiotracer uptake in Xenopus oocytes expressing human SVCT1
Type: cell-based
Details: not given
Procedure: as §1, with “Radiotracer uptake was determined by incubating 8-12 oocytes for 30 min (within the time-course of linear uptake) in standard Na^+, low-Na^+ or Na^+-free media with 10-500 μM L-[1-^14C]ascorbic acid (final specific activity ≈0.3 GBq/mmol).” left out

ability to substitute for Na^+ in driving SVCT1-mediated transport | Compound
unable to substitute for Na^+ | [Li+] [Li^+]

Same assay, conditions: L-ascorbic acid uptake

K0.5 for Na^+ [mM] | Compound
15 to 25 | [Na+] [Na^+]

Same assay, conditions: data not shown

inhibition of L-[14C]ascorbic acid uptake | Compound | inhibition of L-[14C]ascorbic acid uptake (in words)
 | O=CC[C@@H](O)[C@H](O)[C@H](O)CO [2-deoxy-D-glucose] | not significantly inhibited
 | Nc1ncnc2c1ncn2C1CC(O)C(CO)O1 (centres unmarked) [2-deoxyadenosine] | none resulted in any significant inhibition
 | Nc1ncnc2c1ncn2[C@@H]1O[C@H](COP(=O)(O)OP(=O)(O)O)[C@@H](O)[C@H]1O [ADP] | none resulted in any significant inhibition
 | Nc1ncnc2c1ncn2[C@@H]1O[C@H](COP(=O)(O)O)[C@@H](O)[C@H]1O [AMP] | none resulted in any significant inhibition
 | Nc1ncnc2c1ncn2[C@@H]1O[C@H](COP(=O)(O)OP(=O)(O)OP(=O)(O)O)[C@@H](O)[C@H]1O [ATP] | none resulted in any significant inhibition
 | O=C(CO)[C@@H](O)[C@H](O)[C@H](O)CO [D-fructose] | not significantly inhibited
 | OC[C@@H](O)[C@@H](O)[C@H](O)[C@H](O)CO [D-mannitol] | not significantly inhibited
 | O=C[C@H](O)[C@H](O)[C@H](O)CO [D-ribose] | not significantly inhibited
 | Nc1nc2c(ncn2[C@@H]2O[C@H](COP(=O)(O)OP(=O)(O)OP(=O)(O)O)[C@@H](O)[C@H]2O)c(=O)[nH]1 [GTP] | none resulted in any significant inhibition
20-30% | CCCCCCCCCCCCCCCC(=O)OC[C@H](O)[C@H]1OC(=O)C(O)=C1O [L-ascorbic acid-6-palmitate] | 
 | O=C[C@@H](O)[C@@H](O)[C@@H](O)CO [L-ribose] | not significantly inhibited
 | O=c1ccn([C@@H]2O[C@H](COP(=O)(O)OP(=O)(O)OP(=O)(O)O)[C@@H](O)[C@H]2O)c(=O)[nH]1 [UTP] | none resulted in any significant inhibition
 | Nc1ncnc2nc[nH]c12 [adenine] | none resulted in any significant inhibition
 | Nc1ncnc2c1ncn2[C@@H]1O[C@H](CO)[C@@H](O)[C@H]1O [adenosine] | none resulted in any significant inhibition
 | Nc1ncnc2c1ncn2[C@H]1C[C@H](O)[C@@H](COP(=O)(O)OP(=O)(O)OP(=O)(O)O)O1 [dATP] | none resulted in any significant inhibition
 | Nc1ccn([C@H]2C[C@H](O)[C@@H](COP(=O)(O)OP(=O)(O)OP(=O)(O)O)O2)c(=O)n1 [dCTP] | none resulted in any significant inhibition
 | Nc1nc2c(ncn2[C@H]2C[C@H](O)[C@@H](COP(=O)(O)OP(=O)(O)OP(=O)(O)O)O2)c(=O)[nH]1 [dGTP] | none resulted in any significant inhibition
 | Cc1cn([C@H]2C[C@H](O)[C@@H](COP(=O)(O)OP(=O)(O)OP(=O)(O)O)O2)c(=O)[nH]c1=O [dTTP] | none resulted in any significant inhibition
 | Nc1nc2c(ncn2[C@@H]2O[C@H](CO)[C@@H](O)[C@H]2O)c(=O)[nH]1 [guanosine] | none resulted in any significant inhibition
 | OC[C@H]1O[C@@H](n2cnc3c(O)ncnc32)[C@H](O)[C@@H]1O [inosine] | none resulted in any significant inhibition
 | CC(O)C(=O)O (centres unmarked) [lactic acid] | not significantly inhibited
 | O=C(O)C(=O)O [oxalic acid] | not significantly inhibited
 | O=C(O)CCC(=O)O [succinic acid] | not significantly inhibited
 | Cc1c[nH]c(=O)[nH]c1=O [thymine] | none resulted in any significant inhibition
 | O=c1cc[nH]c(=O)[nH]1 [uracil] | none resulted in any significant inhibition
 | O=c1[nH]c(=O)c2[nH]c(=O)[nH]c2[nH]1 [uric acid] | not significantly inhibited
 | O=c1ccn([C@@H]2O[C@H](CO)[C@@H](O)[C@H]2O)c(=O)[nH]1 [uridine] | none resulted in any significant inhibition
